The source of these data is publication PMC8188608 (Chemical Science, 2021).

One series concerns E. coli TolC. In words: microbe, parasite or virus in culture. It is filed as cell-based. Conditions: for inhibition at 50 µM / MIC: Escherichia coli; for inhibition at 50 µM: read-out: inhib. (%) growth inhibition of E. coli TolC; for MIC: read-out: MIC E. coli TolC.
In series [1] the target is T1, drDXPS (Deinococcus radiodurans, UniProt Q9RUB5). In words: biochemical. Conditions: for inhibition at 120 µM: read-out: inhib. (%) drDXPS, at 120 μM.
Another series addresses mtDXPS (Mycobacterium tuberculosis, UniProt P9WNS3). As to the kind of experiment: biochemical. The conditions noted are these: for inhibition at 200 µM / inhibition at 120 µM: read-out: inhib. (%) mtDXPS; for inhib. (%) mtDXPS: at 120 μM (Table 3: concentration only given).
Series [2] deals with T1, drDXPS. As to the kind of experiment: biochemical. The conditions noted are these: for IC50: IC50 drDXPS.
A further series has as its system M. tuberculosis H37Rv. As to the kind of experiment: microbe, parasite or virus in culture. In kind it is cell-based, Mycobacterium tuberculosis. Conditions: for anti-TB activity, head-to-head comparative analysis: 16 μM, 14 compounds tested; for MIC: Mycobacterium tuberculosis, H37RV, read-out: MIC M. tuberculosis.
The format of series [3] is physicochemical. The conditions noted are these: when added at higher concentrations.
The target in series [4] is T1, drDXPS. In kind it is binding.

≈ marks a conversion by molar mass, not a printed value.

T1 sequence (Q9RUB5 whole entry): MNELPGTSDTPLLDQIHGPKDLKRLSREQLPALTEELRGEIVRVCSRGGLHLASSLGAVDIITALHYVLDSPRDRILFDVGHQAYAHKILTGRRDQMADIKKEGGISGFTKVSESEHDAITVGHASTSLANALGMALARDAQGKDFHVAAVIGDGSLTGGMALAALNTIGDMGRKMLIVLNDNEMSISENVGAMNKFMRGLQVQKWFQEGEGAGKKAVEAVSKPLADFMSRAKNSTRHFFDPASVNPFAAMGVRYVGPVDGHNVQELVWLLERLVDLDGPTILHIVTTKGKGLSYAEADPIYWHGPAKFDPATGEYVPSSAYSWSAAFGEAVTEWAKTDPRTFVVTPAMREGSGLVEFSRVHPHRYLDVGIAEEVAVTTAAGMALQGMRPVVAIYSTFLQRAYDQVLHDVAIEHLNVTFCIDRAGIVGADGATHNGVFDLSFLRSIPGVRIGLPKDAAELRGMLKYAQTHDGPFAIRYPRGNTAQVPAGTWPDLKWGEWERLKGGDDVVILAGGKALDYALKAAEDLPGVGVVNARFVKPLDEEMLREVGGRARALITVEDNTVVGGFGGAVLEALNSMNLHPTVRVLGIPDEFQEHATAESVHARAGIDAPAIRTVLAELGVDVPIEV
Chain of mtDXPS (P9WNS3 whole entry): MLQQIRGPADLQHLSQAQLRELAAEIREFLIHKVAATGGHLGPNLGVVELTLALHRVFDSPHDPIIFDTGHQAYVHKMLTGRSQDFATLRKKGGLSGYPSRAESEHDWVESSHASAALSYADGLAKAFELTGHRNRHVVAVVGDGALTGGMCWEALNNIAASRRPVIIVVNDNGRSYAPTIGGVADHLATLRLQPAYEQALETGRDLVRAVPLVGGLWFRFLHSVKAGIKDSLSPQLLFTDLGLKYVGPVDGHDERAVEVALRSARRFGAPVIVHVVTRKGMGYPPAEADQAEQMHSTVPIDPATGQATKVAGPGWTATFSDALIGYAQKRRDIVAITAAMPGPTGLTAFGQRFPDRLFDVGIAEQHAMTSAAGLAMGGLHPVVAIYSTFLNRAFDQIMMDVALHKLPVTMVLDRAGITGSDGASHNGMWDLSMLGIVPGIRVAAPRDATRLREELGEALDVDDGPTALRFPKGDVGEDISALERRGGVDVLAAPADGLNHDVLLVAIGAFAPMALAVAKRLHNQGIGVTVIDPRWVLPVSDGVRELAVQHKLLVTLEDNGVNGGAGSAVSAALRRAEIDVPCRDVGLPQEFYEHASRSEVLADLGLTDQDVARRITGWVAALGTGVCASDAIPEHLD

For `O=C(N/N=C/c1ccc(C(F)(F)F)nc1)c1cc2c(s1)CCCC2` [Compound 1, (E)-N'-((6-(Trifluoromethyl)pyridin-3-yl)methylene)-4,5,6,7-tetrahydrobenzo[b]thiophene-2-carbohydrazide], the “inhib. (%) growth inhibition of E. coli TolC” value (shortened to “inhib. (%) growth inhibition”) in the series with E. coli TolC (at 50 μM) was “no inhib. and n.i”. Besides, the IC50 against drDXPS [1] (IC50 drDXPS) was 51 µM; against mtDXPS (IC50 mtDXPS) it was 78 µM; at drDXPS [2] (at 0.3 μM ThDP), 35 ± 10 µM; at drDXPS [2] (at 0.1 mM pyruvate), 19 ± 5 µM; against drDXPS [2] (at 0.4 mM pyruvate), 86 ± 15 µM; against drDXPS [2] (varying D/L-GAP concentrations) it was ~50 µM. For the same compound, the mode of inhibition entry on drDXPS [2] is “ThDP- and pyruvate-competitive and non-competitive with respect to D/L-GAP”. In addition, the “inhibition of drDXPS” value amounted to 20% at drDXPS [2] (at 5 μM ThDP) and 32% at drDXPS [2] (at 0.6 mM pyruvate).
Regarding `Nc1ncc(/C=N/NC(=O)c2cc3c(s2)CCCC3)cn1` [Compound 3], the “inhib. (%) growth inhibition” value with E. coli TolC (at 50 μM) was “n.i”. The inhibition at 120 µM on drDXPS [1] came out at 15%.
For the compound `O=C(Cc1c[nH]c2ccccc12)N/N=C/c1ccc(C(F)(F)F)nc1` [Compound 4], the “inhib. (%) drDXPS” value against drDXPS [1] (at 120 μM) is “n.i”. Further, on mtDXPS, the inhibition at 200 µM was 25%.
With `O=C(COc1ccc(Cl)cc1Cl)N/N=C/c1cc2c(s1)CCCC2` [Compound 6], the “inhib. (%) growth inhibition” value in the series with E. coli TolC (at 25 μM) is “n.i.^#”. Moreover, half-maximal inhibition against drDXPS [1] (IC50 drDXPS) (IC50) required 101 µM. Further, the inhibition at 120 µM on mtDXPS turned out to be 46%.
Turning to `O=C(N/N=C/c1cc2c(s1)CCCC2)c1cccs1` [Compound 7], in the series with M. tuberculosis H37Rv, the “anti-TB activity, head-to-head comparative analysis” value is reported as “most active” and the MIC is > 64 µM. Besides, in the series on E. coli TolC, the inhibition at 50 µM turned out to be 57%. Also, on drDXPS [1], the inhibition at 120 µM is 37%. Further, the aggregate formation result in series [3] is “did not induce aggregate formation”. At mtDXPS, the inhibition at 120 µM stood at 65% and the inhibition at 200 µM turned out to be 65 ± 4%.
As to `O=C(COc1ccc(Cl)cc1Cl)N/N=C/c1c[nH]c2ccccc12` [Compound 9], the MIC with E. coli TolC worked out at 19 ± 7 µM (≈ 6.88 µg/mL). Moreover, the inhibition at 120 µM on drDXPS [1] came to 38%. Also, the inhibition at 200 µM on mtDXPS is 15%.
On to `O=C(COc1ccc(Cl)cc1Cl)N/N=C/c1ccc(Br)cn1` [Compound 10], for which, in the series on E. coli TolC, the inhibition at 50 µM amounted to 21%. Moreover, the inhibition at 120 µM at drDXPS [1] turned out to be 14%. Moreover, the inhibition at 200 µM on mtDXPS turned out to be 32%.
Regarding `O=C(CCCOc1ccc(Cl)cc1Cl)N/N=C/c1ncc[nH]1` [Compound 12], in the series with E. coli TolC, the inhibition at 50 µM stood at 30%. Besides, the figures for the inhibition at 120 µM on drDXPS [1] and at mtDXPS were 33% and 9%, respectively.
As for `O=C(CCCOc1ccc(Cl)cc1Cl)N/N=C/c1cccs1` [Compound 16], the inhibition at 50 µM in the series with E. coli TolC was determined as 28%. The inhibition at 120 µM at drDXPS [1] amounted to 4%. In addition, at mtDXPS, the “inhib. (%) mtDXPS” value is “n.i”.
As for `CCN(CC)c1ccc(/C=N/NC(=O)c2cccs2)c(O)c1` [Compound 21], in the series on E. coli TolC, the MIC was 70 µM (≈ 22.2 µg/mL). Further, the inhibition at 120 µM at drDXPS [1] stood at 6%; at mtDXPS, 11%.
`O=C(CCCOc1ccc(Cl)cc1Cl)N/N=C/c1cccc2[nH]ncc12` [Compound 22]: the “inhib. (%) growth inhibition” value in the series on E. coli TolC (at 50 μM) is reported as “n.i”. At drDXPS [1], the inhibition at 120 µM amounted to 47%. The “inhib. (%) mtDXPS” value against mtDXPS is listed as “n.i”.
In the case of `O=C(CCCOc1ccc(Cl)cc1Cl)N/N=C/c1ccc(O)cc1F` [Compound 23], the MIC with E. coli TolC is 45 µM (≈ 17.3 µg/mL). Moreover, the inhibition at 120 µM on drDXPS [1] lay in the range of 40 to 62%. For the same compound, the “inhib. (%) mtDXPS” value on mtDXPS was “n.i”.
For `COc1cccc(/C=N/NC(=O)CCCOc2ccc(Cl)cc2Cl)c1O` [Compound 25] the same measures were 60 µM (≈ 23.8 µg/mL), 45% and “n.i”.
For the compound `O=C(CCCOc1ccc(Cl)cc1Cl)N/N=C/c1ccc2cc[nH]c2c1` [Compound 26], the MIC with E. coli TolC is 14 ± 4 µM (≈ 5.46 µg/mL). In addition, the values for the inhibition at 120 µM at drDXPS [1] and on mtDXPS were 58% and 5%, respectively.
For `O=C(N/N=C/c1ccc2cc[nH]c2c1)c1cc2c(s1)CCCC2` [Compound 35], in the series on M. tuberculosis H37Rv, the “anti-TB activity, head-to-head comparative analysis” value is “most active”. In addition, the MIC with M. tuberculosis H37Rv worked out at 64 µM (≈ 20.7 µg/mL); in the series with E. coli TolC it was 16 ± 5 µM (≈ 5.17 µg/mL). For the same compound, the results for the inhibition at 120 µM on drDXPS [1] and at mtDXPS were 62% and 30%, respectively. Also, the aggregate formation entry in series [3] was “did not induce aggregate formation”.
In the case of `CC(C)(C)OC(=O)N[C@@H](Cc1ccccc1)C(=O)N/N=C/c1ccc2cc[nH]c2c1` [Compound 37], the inhibition at 50 µM in the series on E. coli TolC was 60%. The inhibition at 120 µM was determined as 40% on drDXPS [1] and 3% at mtDXPS.
Consider `O=C(NCCc1ccc(C(F)(F)F)nc1)c1cc2c(s1)CCCC2` [Compound 38], for which, in the series on E. coli TolC, the inhibition at 50 µM amounted to 19%. Besides, the inhibition at 120 µM at drDXPS [1] is 25.8%.
`O=C(CCCOc1ccc(Cl)cc1Cl)NCCc1ccc(O)cc1F` [Compound 39]: the inhibition at 50 µM with E. coli TolC was found to be 83%. Moreover, the inhibition at 120 µM on drDXPS [1] amounted to 37%. The “fold decrease in binding affinity for drDXPS” value on drDXPS [4] is recorded as ~2 fold.
In the case of `FC(F)(F)c1ccc(-c2nnc(-c3cc4c(s3)CCCC4)o2)cn1` [Compound 40], the “inhib. (%) growth inhibition” value in the series on E. coli TolC (at 50 μM) is “no inhibition and n.i”. Moreover, the “KD drDXPS” value on drDXPS [4] (SPR, steady-state fit) is “n.b”.
In the case of `Oc1ccc(-c2nnc(CCCOc3ccc(Cl)cc3Cl)o2)c(F)c1` [Compound 41, 4-(5-(3-(2,4-dichlorophenoxy)propyl)-1,3,4-oxadiazol-2-yl)-3-fluorophenol], the inhibition at 50 µM in the series on E. coli TolC came to 47%. Moreover, the “inhib. (%) drDXPS” value against drDXPS [1] (at 60 μM) is given as 48 ± 3%. Besides, the IC50 at drDXPS [1] (estimated IC50 drDXPS, estimated assuming full inhibition at high concentrations) is 99 µM.

The IC50 is the concentration at which inhibition is half-maximal.
